The values below come from patent publication US10570180B2, “Anti-bacterial agents and their use in therapy” (priority 2015, dated 2020).

For assay [1], the system named is Staphylococcus aureus MRSA 1040s. Nature of the assay: microbe, parasite or virus in culture. It is filed as cell-based. The settings on record: for MIC: 1040s; for MIC of Erythromycin (Relative values): concentration of APIM peptide 15 μg/ml, MRSA 1040s. The procedure: (§1) ATX-101 was dissolved in Mueller-Hinton broth to 1.25 times of the desired assay concentration. Antibiotics were dissolved in Mueller-Hinton broth and Mueller-Hinton broth with ATX-101 at a concentration of 1.25 times the highest desired assay concentrations. Antibiotics were pharmaceutical grade purchased from Sigma-Aldrich.
(§2) Two-fold serial dilutions of antibiotics were made in Mueller-Hinton with different concentrations of ATX-101, and the solutions were placed in four parallel wells is Nunc 384-well micro plates (30 μl per well in Nunc 242757 microplates). A group of 8 wells with no addition of antibiotics for each ATX-101 concentration was included on each micro plate as a growth reference.
(§3) At the day of analysis, overnight TSB cultures inoculated from freeze stocks (6 ml in 50 ml tube tilted to 45-degrees angle, 200 rpm, 2.5 cm amplitude, 37° C.) were diluted in TSB until the OD800 was 0.10, and further diluted 1:40 in Mueller-Hinton broth. Each well in the 384-well assay plates was inoculated with 7.5 μl of the diluted culture, giving the same dilution of the culture in the assay cultures. The microplates were placed in plastic bags and incubated without shaking at 37° C. The optical density at 600 nm in the microwells was measured after approximately 19 hours of incubation, and the relative growth yield was calculated based on the growth in the reference groups. The MIC value was set to the highest concentration giving less than 30% growth in all 4 parallel wells within the sample groups. The microplates were further incubated for 6 hours, and optical density in the cultures was measured once more for confirmation of the estimated MIC-values.
The APIM peptide was dissolved in Mueller-Hinton broth to 1.25 times of the desired assay concentration. Antibiotics were dissolved in Mueller-Hinton broth and Mueller-Hinton broth with APIM at a concentration of 1.25 times the highest desired assay concentrations. Antibiotics were pharmaceutical grade purchased from Sigma-Aldrich.
Two-fold serial dilutions of antibiotics were made in Mueller-Hinton with different concentrations of APIM, and the solutions were placed in four parallel wells in Nunc 384-well micro plates (30 μl per well in Nunc 242757 microplates). A group of 8 wells with no addition of antibiotics for each APIM concentration was included on each micro plate as growth reference.
as §3, with “inoculated” for “inoculated from”, “OD600” for “OD800”, “culture.” for “culture, giving the same dilution of the culture in the assay cultures.”, “yield in each well” for “yield”
In view of the anti-bacterial effect of ATX-101 on strains of MRSA, the MIC for a variety of APIM variants was determined using Staphylococcus aureus MRSA 1040s. […] A cell penetrating peptide (SEQ ID NO: 337) present in all of the APIM peptides, was used as a negative control.
Next, the effect of APIM peptides on the MIC of antibiotics was determined using Staphylococcus aureus MRSA 1040s.
(§4) The MICS for various APIM peptides were determined for various bacteria, as described above.

Assay [2] addresses β-clamp protein from E. coli (Escherichia coli, UniProt P0A988). Nature of the assay: Microscale thermophoresis (MST). The settings on record: no data could be obtained. It is filed as binding. The procedure: Microscale thermophoresis (MST) was used to determine the dissociation constant for various APIM containing peptides.
The β-clamp protein from E. coli was labeled with a fluorescent molecule. Concentration of PCNA was kept constant, whereas dilutions of each APIM containing peptide were prepared (1:1). In a mix of protein and peptide, the signal was recorded in all capillaries with varying concentrations of the unlabeled peptide, and any change of thermophoretic properties was observed as a change in fluorescence intensity.

The test system of the next assay is A. baumanii. Format: cell-based. The procedure:
as §1, §2, §3, §4

In the next assay the test system is E. faecium TO-12. Format: cell-based. The procedure:
as §1, §2, §3, §4

Assay [3] concerns Staphylococcus aureus NCTC 6571. Format: cell-based. The settings on record: NCTC 6571. The procedure:
as §1, §2, §3, §4

Assay [4] concerns E. faecium CCUG 37832 (TO-3). Format: cell-based, Enterococcus faecium. The settings on record: CCUG 37832. As for the experimental part: as §1, §2, §3
Accordingly, concentrations of 8 μg/ml and 16 μg/ml of ATX-101 were combined with various antibiotics selected from; 2,4-Diamin, S. methizol, S. methoxa, S. dimetho, Surfaceta, Trimeth, Flumeq, Levoflox, Pruliflox, Metronid and Nitrofur.
as §4

A further assay concerns bacteria. The assay is described as follows: MIC of other APIM peptides on bacteria. It is filed as cell-based. The settings on record: Example 2.
The subject of a further assay is E. coli BL21 (ripl). The assay is described as follows: Overexpression of APIM peptides in E. coli, growth. It is filed as cell-based. The settings on record: induction with 1 mM IPTG, no cell-penetrating peptide; FIG. 9, 10. The text has this:
In order to verify further that the anti-microbial effect of the APIM peptides arise from the APIM sequence, peptides containing only the APIM sequence (i.e. without a cell-penetrating peptide) were over-expressed in E. coli using the expression vector pET28. The APIM peptide was expressed alone or as part of a fusion protein with EYFP. Expression of EYFP alone was used as a control.
The expression vectors containing the respective peptides were transfected into the bacterial strain E. coli BL21 (ripl). Single colonies, 4-6 of each strain, were inoculated in […] LB media (+Km/Clm) in 96 wells plates, and incubated at 37° C. Overnight cultures were diluted 1:100 and grown for 1 h before induction with 1 mM IPTG (initiating peptide expression). OD was measured every hour.
In order to verify that the extended APIM peptides have an anti-bacterial effect, peptides containing only the “extended” APIM sequence (i.e. without a cell-penetrating peptide) were over-expressed in E. coli using the expression vector pET28, using the method described in Example 7. […] The bacterial strain without a plasmid was used as a further control.

≈ marks a conversion by molar mass, not a printed value. Ends that are not written are not given here.

Chain of β-clamp protein from E. coli (P0A988 whole entry): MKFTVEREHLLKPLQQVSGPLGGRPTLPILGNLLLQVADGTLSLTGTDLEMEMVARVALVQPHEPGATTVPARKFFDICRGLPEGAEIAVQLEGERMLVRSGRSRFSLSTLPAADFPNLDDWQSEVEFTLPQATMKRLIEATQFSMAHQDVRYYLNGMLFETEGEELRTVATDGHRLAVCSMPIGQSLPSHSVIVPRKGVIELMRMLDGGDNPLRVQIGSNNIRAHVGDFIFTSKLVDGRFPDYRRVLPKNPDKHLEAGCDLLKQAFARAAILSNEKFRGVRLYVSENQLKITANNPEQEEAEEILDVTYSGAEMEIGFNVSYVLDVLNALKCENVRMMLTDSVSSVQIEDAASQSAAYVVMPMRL

Take `N=C(N)NCCC[C@H](NC(=O)[C@H](CCCNC(=N)N)NC(=O)[C@H](CCCNC(=N)N)NC(=O)[C@H](CCCNC(=N)N)NC(=O)[C@H](CCCNC(=N)N)NC(=O)[C@H](CCCNC(=N)N)NC(=O)[C@H](CCCNC(=N)N)NC(=O)[C@H](CCCNC(=N)N)NC(=O)[C@H](CCCNC(=N)N)NC(=O)[C@H](CCCNC(=N)N)NC(=O)[C@@H](N)CCCNC(=N)N)C(=O)O` [R11, RRRRRRRRRRR, reference compound]: the MIC in assay [1] came to 118 µg/mL. Also, the “interaction with the β-clamp protein” value in assay [2] is given as “does not interact with the β-clamp protein”.

Consider `CC[C@H](C)[C@H](NC(=O)[C@H](CCCCN)NC(=O)[C@H](CCCNC(=N)N)NC(=O)[C@H](CCCCN)NC(=O)[C@H](CCCCN)NC(=O)[C@H](CCCCN)NC(=O)[C@H](Cc1c[nH]c2ccccc12)NC(=O)[C@@H]1CCCN1C(=O)[C@@H](NC(=O)[C@H](CC(C)C)NC(=O)[C@H](Cc1c[nH]c2ccccc12)NC(=O)[C@H](CCCNC(=N)N)NC(=O)[C@H](CC(=O)O)NC(=O)[C@@H](N)CCSC)C(C)C)C(=O)N[C@@H](CCCNC(=N)N)C(=O)N[C@@H](CCCNC(=N)N)C(=O)N[C@@H](CCCNC(=N)N)C(=O)N[C@@H](CCCNC(=N)N)C(=O)N[C@@H](CCCNC(=N)N)C(=O)N[C@@H](CCCNC(=N)N)C(=O)N[C@@H](CCCNC(=N)N)C(=O)N[C@@H](CCCNC(=N)N)C(=O)N[C@@H](CCCNC(=N)N)C(=O)N[C@@H](CCCNC(=N)N)C(=O)N[C@@H](CCCNC(=N)N)C(=O)O` [SEQ ID NO: 1303], for which the MIC with A. baumanii amounted to 25.3 µM (≈ 91.1 µg/mL); in the assay on E. faecium TO-12 it was 25.3 µM (≈ 91.1 µg/mL); in assay [3], 37.9 µM (≈ 137 µg/mL); in assay [4] it was 7.5 µM (≈ 27 µg/mL). Moreover, the “MIC of Erythromycin (Relative values)” value in assay [1] is recorded as 100.

In the case of “MDRFLSKWKKKRKIRRRRRRRRRRR [SEQ ID NO: 1301]”, the MIC in the assay with E. faecium TO-12 turned out to be 25.3 µM; in assay [3] it was 37.9 µM; in assay [1] it was 7.5 µM; in assay [4], 7.5 µM.

On to “MDRFSLKWKKKRKIRRRRRRRRRRR [SEQ ID NO: 1304]”, for which the MIC against E. faecium TO-12 was 25.3 µM; in assay [3], 37.9 µM; in assay [1], 7.5 µM; in assay [4], 7.5 µM.

Consider “MDRWAVKWKKKRKIRRRRRRRRRRR [SEQ ID NO: 1299]”, for which the values for the MIC (in the assay with E. faecium TO-12; in assay [3]; in assay [4]) were 25.3 µM, 37.9 µM and 7.5 µM, respectively. Further, the “MIC of Erythromycin (Relative values)” value in assay [1] came out at 200. For the same molecule, the “MIC compared with ATX-101” value with bacteria is recorded as “lower MICs than ATX-101”.

For “MDRWLSKWKKKRKIRRRRRRRRRRR [SEQ ID NO: 1302]”, the MIC is 16.8 µM in the assay with E. faecium TO-12, 37.9 µM in assay [3] and 7.5 µM in assay [4]. Besides, in assay [1], the “MIC of Erythromycin (Relative values)” value is on record as 200.

Regarding “MDRWLTKWKKKRKIRRRRRRRRRRR [SEQ ID NO: 1300]”, the results for the MIC (in the assay with E. faecium TO-12; in assay [3]; in assay [4]) were 25.3 µM, 37.9 µM and 7.5 µM, respectively. Moreover, the “MIC of Erythromycin (Relative values)” value in assay [1] was 100.

In the case of “MDRWSVKWKKKRKIRRRRRRRRRRR [SEQ ID NO: 1298]”, the values for the MIC (in the assay with E. faecium TO-12; in assay [3]; in assay [4]) were 37.9 µM, 37.9 µM and 7.5 µM, respectively. Also, the “MIC of Erythromycin (Relative values)” value in assay [1] came to 100. Also, the “MIC compared with ATX-101” value in the assay on bacteria is “lower MICs than ATX-101”.

Consider RFSLK (APIM variant) [SEQ ID NO: 1291], for which, in the assay with E. coli BL21 (ripl), the “bacterial growth on overexpression of APIM peptide (OD)” value (from here on “bacterial growth on overexpression”) was “particularly effective”.

Take RWLTK (APIM variant) [SEQ ID NO: 1293]: the “bacterial growth on overexpression” value with E. coli BL21 (ripl) is recorded as “particularly effective”.

Regarding RWLVK (APIM) [SEQ ID NO: 1290], the “bacterial growth on overexpression” value in the assay with E. coli BL21 (ripl) was “inhibits bacterial growth”.

For RWLVP (APIM variant) [SEQ ID NO: 1292], in the assay with E. coli BL21 (ripl), the “bacterial growth on overexpression” value was “particularly effective”.
